Experimental data as given in patent US20220356163A1, “SMALL MOLECULE INHIBITORS OF Id PROTEINS” (MEMORIAL SLOAN KETTERING CANCER CENTER, priority 2019, published 2022).

Key:
[1] = Concentration of AGX51 in the eyes after i.p. dosing; type: in vivo, mouse; conditions: 30 mg/kg i.p.
Method: Pharmacokinetic analyses. To determine the pharmacokinetic parameters of AGX51, eight-week old male Balb/c mice (Taconic farms) were dosed once by i.p. injection with 30 mg/kg, 50 mg/kg or 100 mg/kg AGX51 prepared in 70% DMSO (n=3 mice per group). Another set of three mice was dosed with 100 mg/kg AGX51 prepared in 100% DMSO. Blood was collected at 30 minutes, 1 hour, 3 hours, 6 hours and 24 hours post AGX51 administration and plasma analyzed via LC-MS as per the protocol previously validated in the MSKCC Antitumor Assessment Core Facility. Following blood collection, the mice were sacrificed via CO2 asphyxiation and the eyes from the 30 mg/kg treatment group were collected and flash frozen for analysis. Data obtained from LC-MS was analyzed via WinNonLin software (version 8.1) for pharmacokinetic parameters.
The concentration of AGX51 was thus measured in the eyes of mice dosed i.p. with 30 mg/kg AGX51 by mass spectrometry over 24 hours. […] The amount of AGX51 reaching the eye was well below the amount required by intraocular injection to show efficacy, which could be due to incomplete recovery from the extraction of dissected eyes or that effective dose ranges vary considerably with delivery route.

MCF-7 = assay: MTT assay, MCF-7; type: cell-based; conditions: Homo sapiens, MCF7, 24 h, MCF-7, ER +ve cell line, read-out: IC50 value after 24 hours of treatment
Excerpt: (§1) The 4T1 murine mammary tumor cell line and nine breast cancer cell lines representing the major breast cancer subtypes (ER+, HER2+, and TNBC) including MDA-MB-157, MDA-MB-436, MDA-MB-231, MDA-MB-453, MDA-MB-361, BT-474, SK-BR-3, MCF-7 and T47-D will be grown in RPMI or DMEM (Dulbecco's Modified Eagle Medium) media supplemented with 10% FBS (fetal bovine serum), 1% penicillin-streptomycin and 1% L-Glutamine. Patient derived xenograft cell lines BR7, BR11, and IBT will be established directly from breast cancer bone metastases specimens surgically resected from patients with informed consent. BR7 and BR11 specimens will be obtained from ER positive (HER2 negative and PR negative) metastatic breast cancer patients, while the IBT specimen will be obtained from a metastatic, triple negative breast cancer patient. Fresh tumor tissues will be quickly washed with ice cold PBS and minced into about 1-3 mm pieces in MEM medium (without FBS) using sterile razor blades. […] The cells will be treated with either 100 μM DMSO, AGX51, or a compound of the present technology such as AGX-A. The cell morphology and growth will be monitored daily for 1 week by microscopy for changes in morphology or cell death. […] Absorbance will then measured at 570 nm using a plate reader (Synergy 2, BioTek). […]

MDA-MB-361 = assay: MTT assay, MDA-MB-361; type: cell-based; conditions: MDA-MB-361, HER-2 +ve cell line, 24 hours
Excerpt: as §1

[2] = test system: new blood vessel formation; assay: Matrigel plug anti-angiogenic assay; type: in vivo, mouse; conditions: in plugs 25 μg/mg or daily ip 30 or 100 mg/kg, 10 days
Method: VEGF-165 and FGF-2 treated Matrigel plugs will be implanted on Day 0 into C57BL/6 mice. Mice will be treated with either vehicle, AGX51, or a compound of the present technology (such as AGX-A). The AGX51 and a compound of the present technology will be provided either in the plugs (25 μg/mg) or by daily ip treatment (30 or 100 mg/kg) for 10 days. Plugs will be harvested on Day 10, fixed and paraffin embedded. Three sections ([…]) of each plug will be stained with an anti-CD31 antibody and counterstained with hematoxylin and eosin stain. CD31-positive microvessels will be counted for one entire cross-section per plug and the average micro-vessel density±SD vessels will be determined. Student's t-test will be used for statistical analysis.

CCC(=O)N(CCC(c1ccc2c(c1)OCO2)c1ccccc1OC)Cc1ccccc1 (racemic) [AGX51, N-(3-(benzo[d][1,3]dioxol-5-yl)-3-(2-methoxyphenyl)propyl)-N-benzylpropionamide]
half-life in the eye [1]: 3.7 h | maximum concentration in the eye ([1]; after 30 minutes): ~4 ng/eye | IC50 (MCF-7): 60 µM | percentage at 60 μM (IC50 NA) (MDA-MB-361): NA (60 μM = 53%) | new blood vessel formation in Matrigel plugs [2]: significant protection from new blood vessel formation
